A word on the IC50: it is the concentration that gives 50% inhibition.

Data on 16 compounds can be found in patent publication US12410208B2, “(2-acetamidyl)thio-beta-D-galactopyranoside derivatives” (Idorsia Pharmaceuticals Ltd, priority 2020, dated 2025).

Where two headings read alike, the source gives them in different places.

For one assay, the target named is human Gal-1 (hGal-1) (Homo sapiens, UniProt P09382). Put plainly: Competitive binding assay: biotinylated hGal-1 binding to microplate-adsorbed asialofetuin (ASF), spectrophotometric. To be noted: hGal-1 binding to asialofetuin; Table 15; R and S epimers of selected Examples also listed; read-out: IC50 (Galectin-1 inhibition). The protocol: (§1) Biological Assay Evaluation of Compound Inhibitory Activity (IC50)
human Gal-1 (hGal-1), sequence (P09382 whole entry): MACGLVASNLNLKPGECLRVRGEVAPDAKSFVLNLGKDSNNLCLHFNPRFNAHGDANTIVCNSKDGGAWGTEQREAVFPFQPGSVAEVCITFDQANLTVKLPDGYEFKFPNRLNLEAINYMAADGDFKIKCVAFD
The inhibitory activity of compounds is determined in competitive binding assays. This spectrophotometric assay measures the binding of biotinylated human Gal-3 (hGal-3) or human Gal-1 (hGal-1), respectively, to a microplate-adsorbed glycoprotein, asialofetuin (ASF) (Proc Natl Acad Sci USA. 2013 Mar. 26; 110(13):5052-7.).
Briefly, compounds are serially diluted in DMSO (working dilutions). ASF-coated 384well plates are supplemented with 22.8 μL/well of biotinylated hGal-3 or hGal-1 in assay buffer (i.e. 300-1000 ng/mL biotinylated hGal-3 or hGal-1) to which 1.2 μL of compound working dilutions are added and mixed.
(§2) Plates are incubated for 3 hours at 4° C., then washed with cold assay buffer (3×50 uL), incubated for 1 hour with 25 μL/well of a streptavidin-peroxidase solution (diluted in assay buffer to 80 ng/mL) at 4° C., followed by further washing steps with assay buffer (3×50 uL). Finally, 25 μL/well of ABTS substrate is added.
(§3) The calculated IC50 values may fluctuate depending on the daily assay performance. Fluctuations of this kind are known to those skilled in the art. IC50 values from several measurements are given as mean values.

For assay [1], the target named is biotinylated human Gal-3 (hGal-3) (Homo sapiens, UniProt P17931). The assay can be described thus: Competitive binding assay: biotinylated hGal-3 binding to microplate-adsorbed asialofetuin (ASF), spectrophotometric. As for the experimental part: If not explicitly mentioned otherwise, the inhibition data refer to the binding of biotinylated human Gal-3 (hGal-3).
biotinylated human Gal-3 (hGal-3), sequence (P17931 whole entry): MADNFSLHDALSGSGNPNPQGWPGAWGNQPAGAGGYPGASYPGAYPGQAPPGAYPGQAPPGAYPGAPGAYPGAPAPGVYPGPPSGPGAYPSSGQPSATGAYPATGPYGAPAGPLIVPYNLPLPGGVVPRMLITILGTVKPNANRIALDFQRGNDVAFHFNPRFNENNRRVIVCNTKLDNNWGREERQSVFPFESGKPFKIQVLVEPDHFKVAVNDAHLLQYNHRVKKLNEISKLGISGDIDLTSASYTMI
as §1
The inhibitory activity of compounds is determined in competitive binding assays.
Briefly, compounds are serially diluted in DMSO (working dilutions).
as §2, §3

Where [2] appears, read: Gal-3 inhibition, Table 5, read-out: IC50.
[3] abbreviates: Gal-3 inhibition, Table 4, read-out: IC50.

In the case of `CN(CC(F)(F)F)C(=O)C(S[C@@H]1O[C@H](CO)[C@H](O)[C@H](n2cc(-c3cc(F)c(F)c(F)c3)nn2)[C@H]1O)C1(O)CCOCC1` (stereo partly drawn) [Example 2.41.219., 2-(((2S,3R,4S,5R,6R)-3,5-Dihydroxy-6-(hydroxymethyl)-4-(4-(3,4,5-trifluorophenyl)-1H-1,2,3-triazol-1-yl)tetrahydro-2H-pyran-2-yl)thio)-2-(4-hydroxytetrahydro-2H-pyran-4-yl)-N-methyl-N-(2,2,2-trifluoroethyl)acetamide], the 50% inhibitory concentration (IC50) on human Gal-1 (hGal-1) is 210 nM; in assay [1] (setting [2]) it was 110 nM.
For `CC1CN(C(=O)[C@H](S[C@@H]2O[C@H](CO)[C@H](O)[C@H](n3cc(-c4cc(F)c(F)c(F)c4)nn3)[C@H]2O)C2(O)CCOCC2)C1` [Example 2.41.205R., (R)-2-(((2S,3R,4S,5R,6R)-3,5-Dihydroxy-6-(hydroxymethyl)-4-(4-(3,4,5-trifluorophenyl)-1H-1,2,3-triazol-1-yl)tetrahydro-2H-pyran-2-yl)thio)-2-(4-hydroxytetrahydro-2H-pyran-4-yl)-1-(3-methylazetidin-1-yl)ethan-1-one], the values for the IC50 (at human Gal-1 (hGal-1); in assay [1] (setting [3])) were 4900 nM and 1000 nM, respectively.
Turning to `CN(CC1CC1)C(=O)[C@H](S[C@@H]1O[C@H](CO)[C@H](O)[C@H](n2cc(-c3cc(F)c(F)c(F)c3)nn2)[C@H]1O)C1(O)CCC(F)(F)CC1` [Example 2.44.218R., (R)-N-(Cyclopropylmethyl)-2-(4,4-difluoro-1-hydroxycyclohexyl)-2-(((2S,3R,4S,5R,6R)-3,5-dihydroxy-6-(hydroxymethyl)-4-(4-(3,4,5-trifluorophenyl)-1H-1,2,3-triazol-1-yl)tetrahydro-2H-pyran-2-yl)thio)-N-methylacetamide], the values for the IC50 (on human Gal-1 (hGal-1); in assay [1] (setting [2])) were 1900 nM and 1150 nM, respectively.
For the compound `CN(CC1CC1)C(=O)C(S[C@@H]1O[C@H](CO)[C@H](O)[C@H](n2cc(-c3cc(F)c(F)c(F)c3)nn2)[C@H]1O)C1(O)CCOCC1` (stereo partly drawn) [Example 2.41.218., N-(Cyclopropylmethyl)-2-(((2S,3R,4S,5R,6R)-3,5-dihydroxy-6-(hydroxymethyl)-4-(4-(3,4,5-trifluorophenyl)-1H-1,2,3-triazol-1-yl)tetrahydro-2H-pyran-2-yl)thio)-2-(4-hydroxytetrahydro-2H-pyran-4-yl)-N-methylacetamide], the IC50 at human Gal-1 (hGal-1) was 190 nM; in assay [1] (setting [3]) it was 800 nM.
As to `CCN(C)C(=O)[C@@H](S[C@@H]1O[C@H](CO)[C@H](O)[C@H](n2cc(-c3cc(F)c(F)c(F)c3)nn2)[C@H]1O)C(C)(C)O` [Example 2.31.203S., (S)-2-(((2S,3R,4S,5R,6R)-3,5-Dihydroxy-6-(hydroxymethyl)-4-(4-(3,4,5-trifluorophenyl)-1H-1,2,3-triazol-1-yl)tetrahydro-2H-pyran-2-yl)thio)-N-ethyl-3-hydroxy-N,3-dimethylbutanamide], the half-maximal inhibitory concentration (IC50) amounted to 240 nM on human Gal-1 (hGal-1) and 70 nM in assay [1] (Gal-3 inhibition, Table 3, read-out: IC50).
On to `O=C(C(S[C@@H]1O[C@H](CO)[C@H](O)[C@H](n2cc(-c3cc(F)c(F)c(F)c3)nn2)[C@H]1O)C1(O)CCOCC1)N1CCC1` (stereo partly drawn) [Example 2.41.206., 1-(Azetidin-1-yl)-2-(((2S,3R,4S,5R,6R)-3,5-dihydroxy-6-(hydroxymethyl)-4-(4-(3,4,5-trifluorophenyl)-1H-1,2,3-triazol-1-yl)tetrahydro-2H-pyran-2-yl)thio)-2-(4-hydroxytetrahydro-2H-pyran-4-yl)ethan-1-one], for which the IC50 at human Gal-1 (hGal-1) was found to be 1500 nM; in assay [1] (setting [3]), 260 nM.
Regarding `COCCN(C)C(=O)C(S[C@@H]1O[C@H](CO)[C@H](O)[C@H](n2cc(-c3cc(F)c(F)c(F)c3)nn2)[C@H]1O)C(C)(C)O` (stereo partly drawn) [Example 2.31.229., 2-(((2S,3R,4S,5R,6R)-3,5-Dihydroxy-6-(hydroxymethyl)-4-(4-(3,4,5-trifluorophenyl)-1H-1,2,3-triazol-1-yl)tetrahydro-2H-pyran-2-yl)thio)-3-hydroxy-N-(2-methoxyethyl)-N,3-dimethylbutanamide], the IC50 on human Gal-1 (hGal-1) is 800 nM; in assay [1] (Table 6, hGal-3, read-out: IC50 (Gal-3 inhibition)), 110 nM.
For the compound `O=C(C(S[C@@H]1O[C@H](CO)[C@H](O)[C@H](n2cc(-c3cc(F)c(F)c(F)c3)nn2)[C@H]1O)C1(O)CCOCC1)N1CCCCC1` (stereo partly drawn) [Example 2.41.208., 2-(((2S,3R,4S,5R,6R)-3,5-Dihydroxy-6-(hydroxymethyl)-4-(4-(3,4,5-trifluorophenyl)-1H-1,2,3-triazol-1-yl)tetrahydro-2H-pyran-2-yl)thio)-2-(4-hydroxytetrahydro-2H-pyran-4-yl)-1-(piperidin-1-yl)ethan-1-one], the values for the IC50 (at human Gal-1 (hGal-1); in assay [1] (setting [3])) were 220 nM and 90 nM, respectively.
On to `CN(Cc1ccccc1)C(=O)[C@H](S[C@@H]1O[C@H](CO)[C@H](O)[C@H](n2cc(-c3cc(F)c(F)c(F)c3)nn2)[C@H]1O)C1(O)CCOCC1` [Example 2.41.207R., (R)-N-Benzyl-2-(((2S,3R,4S,5R,6R)-3,5-dihydroxy-6-(hydroxymethyl)-4-(4-(3,4,5-trifluorophenyl)-1H-1,2,3-triazol-1-yl)tetrahydro-2H-pyran-2-yl)thio)-2-(4-hydroxytetrahydro-2H-pyran-4-yl)-N-methylacetamide], for which the IC50 stood at 51500 nM on human Gal-1 (hGal-1) and 8230 nM in assay [1] (setting [3]).
As for `CN(CC(C)(C)F)C(=O)[C@@H](S[C@@H]1O[C@H](CO)[C@H](O)[C@H](n2cc(-c3cc(F)c(F)c(F)c3)nn2)[C@H]1O)C1(O)CCCCC1` [Example 2.39.222S., (S)-2-(((2S,3R,4S,5R,6R)-3,5-Dihydroxy-6-(hydroxymethyl)-4-(4-(3,4,5-trifluorophenyl)-1H-1,2,3-triazol-1-yl)tetrahydro-2H-pyran-2-yl)thio)-N-(2-fluoro-2-methylpropyl)-2-(1-hydroxycyclohexyl)-N-methylacetamide], the IC50 at human Gal-1 (hGal-1) was 90 nM; in assay [1] (setting [2]) it was 20 nM.
`CN(CC1CC1)C(=O)[C@H](S[C@@H]1O[C@H](CO)[C@H](O)[C@H](n2cc(-c3cc(F)c(F)c(F)c3)nn2)[C@H]1O)C1(O)CCOCC1` [Example 2.41.218R., (R)-N-(Cyclopropylmethyl)-2-(((2S,3R,4S,5R,6R)-3,5-dihydroxy-6-(hydroxymethyl)-4-(4-(3,4,5-trifluorophenyl)-1H-1,2,3-triazol-1-yl)tetrahydro-2H-pyran-2-yl)thio)-2-(4-hydroxytetrahydro-2H-pyran-4-yl)-N-methylacetamide]: the results for the IC50 (at human Gal-1 (hGal-1); in assay [1] (setting [3])) were 19000 nM and 2250 nM, respectively.
Regarding `CC(C)CN(C)C(=O)[C@@H](S[C@@H]1O[C@H](CO)[C@H](O)[C@H](n2cc(-c3cc(F)c(F)c(F)c3)nn2)[C@H]1O)C1(O)CCOCC1` [Example 2.41.200S., (S)-2-(((2S,3R,4S,5R,6R)-3,5-Dihydroxy-6-(hydroxymethyl)-4-(4-(3,4,5-trifluorophenyl)-1H-1,2,3-triazol-1-yl)tetrahydro-2H-pyran-2-yl)thio)-2-(4-hydroxytetrahydro-2H-pyran-4-yl)-N-isobutyl-N-methylacetamide], the IC50 at human Gal-1 (hGal-1) came to 110 nM; in assay [1] (Gal-3 inhibition, Table 2, read-out: IC50), 50 nM.
With `CN(CC1CC1)C(=O)C(S[C@@H]1O[C@H](CO)[C@H](O)[C@H](n2cc(-c3cc(F)c(F)c(F)c3)nn2)[C@H]1O)C1(O)CCC(F)(F)CC1` (stereo partly drawn) [Example 2.44.218., N-(Cyclopropylmethyl)-2-(4,4-difluoro-1-hydroxycyclohexyl)-2-(((2S,3R,4S,5R,6R)-3,5-dihydroxy-6-(hydroxymethyl)-4-(4-(3,4,5-trifluorophenyl)-1H-1,2,3-triazol-1-yl)tetrahydro-2H-pyran-2-yl)thio)-N-methylacetamide], the IC50 on human Gal-1 (hGal-1) worked out at 30 nM; in assay [1] (setting [2]), 20 nM.
`CCN(C(=O)[C@@H](S[C@@H]1O[C@H](CO)[C@H](O)[C@H](n2cc(-c3cc(F)c(F)c(F)c3)nn2)[C@H]1OC)C1(O)CCC(F)(F)CC1)C1CC1` [Example 2.44.238S.I.]: the IC50 was determined as 30 nM at human Gal-1 (hGal-1) and 20 nM in assay [1] (Table 10, hGal-3, read-out: IC50 (Gal-3 inhibition)).
Consider `CN(C)C(=O)C(S[C@@H]1O[C@H](CO)[C@H](O)[C@H](n2cc(-c3cc(F)c(F)c(F)c3)nn2)[C@H]1O)C1(O)CCC(F)(F)CC1` (mixture of isomers) [Example 2.44.201., 2-(4,4-Difluoro-1-hydroxycyclohexyl)-2-(((2S,3R,4S,5R,6R)-3,5-dihydroxy-6-(hydroxymethyl)-4-(4-(3,4,5-trifluorophenyl)-1H-1,2,3-triazol-1-yl)tetrahydro-2H-pyran-2-yl)thio)-N,N-dimethylacetamide], for which the values for the IC50 (at human Gal-1 (hGal-1); in assay [1] (setting [2])) were 230 nM and 100 nM, respectively.
With `CCN(C)C(=O)C(S[C@@H]1O[C@H](CO)[C@H](O)[C@H](n2cc(-c3cccc(F)c3)nn2)[C@H]1O)C1(O)CCOCC1` (stereo partly drawn) [Example 1.41.203., N-Ethyl-2-(((2S,3R,4S,5R,6R)-4-(4-(3-fluorophenyl)-1H-1,2,3-triazol-1-yl)-3,5-dihydroxy-6-(hydroxymethyl)tetrahydro-2H-pyran-2-yl)thio)-2-(4-hydroxytetrahydro-2H-pyran-4-yl)-N-methylacetamide], the IC50 at human Gal-1 (hGal-1) was 160 nM; in assay [1] (Table 11, hGal-3, read-out: IC50 (Gal-3 inhibition)), 130 nM.
